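Five concentrations, 48 hours, 96-well plates. GI50 marks 50% less growth.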 Activity calls are given as the source filed them. No stated cut-off is given here; in the data, active = GI50 up to about 1.1 µM and inactive = higher.
What was measured:
Experiment in all cases: DTP human tumour cell line panel, 48 h
IGROV-1 = test system: IGROV-1
NCI-H522 = test system: NCI-H522
RXF 393 = test system: RXF 393
Malme-3M = test system: Malme-3M
T47D = test system: T47D
SK-OV-3 = test system: SK-OV-3
ACHN = test system: ACHN
SK-MEL-2 = test system: SK-MEL-2
MCF7 = test system: MCF7
MDA-MB-435 = test system: MDA-MB-435
HOP-62 = test system: HOP-62
PC-3 = test system: PC-3
MDA-MB-231 = test system: MDA-MB-231
CAKI-1 = test system: CAKI-1
SF-539 = test system: SF-539
HCT-15 = test system: HCT-15
786-0 = test system: 786-0
CCRF-CEM = test system: CCRF-CEM
A498 = test system: A498
HCT-116 = test system: HCT-116
SNB-19 = test system: SNB-19
COLO 205 = test system: COLO 205
MOLT-4 = test system: MOLT-4
Hs-578T = test system: Hs-578T
SK-MEL-28 = test system: SK-MEL-28
DU-145 = test system: DU-145
HOP-92 = test system: HOP-92
UACC-62 = test system: UACC-62
OVCAR-8 = test system: OVCAR-8
RPMI-8226 = test system: RPMI-8226
SF-268 = test system: SF-268
TK-10 = test system: TK-10
LOX IMVI = test system: LOX IMVI
SR = test system: SR
OVCAR-4 = test system: OVCAR-4
OVCAR-3 = test system: OVCAR-3
SF-295 = test system: SF-295
HCC 2998 = test system: HCC 2998
HL-60 = test system: HL-60
A549 = test system: A549
NCI-H23 = test system: NCI-H23
SW-620 = test system: SW-620
NCI-H460 = test system: NCI-H460
HT-29 = test system: HT-29
OVCAR-5 = test system: OVCAR-5
SN12C = test system: SN12C
NCI/ADR-RES = test system: NCI/ADR-RES
SNB-75 = test system: SNB-75
EKVX = test system: EKVX
MDA-N = test system: MDA-N
NCI-H226 = test system: NCI-H226
UACC-257 = test system: UACC-257
UO-31 = test system: UO-31
SK-MEL-5 = test system: SK-MEL-5
KM12 = test system: KM12
U-251 = test system: U-251
M14 = test system: M14
BT-549 = test system: BT-549

With `Nc1cc2c(c3ccccc13)C(CCl)CN2C(=O)c1cc2cc(NC(=O)c3cc4ccccc4o3)ccc2[nH]1` (stereo not drawn) the GI50 (IGROV-1) was 5.78 nM (active), the GI50 (NCI-H522) was 0.925 nM (active) and the GI50 (RXF 393) was 110 nM (active). The GI50 (Malme-3M) was 2.13 nM (active), the GI50 (T47D) was 1.58 nM (active) and the GI50 (SK-OV-3) was 110 nM (active). For the same molecule, the GI50 (ACHN) was 0.492 nM (active), the GI50 (SK-MEL-2) was 2.86 nM (active) and the GI50 (MCF7) was 0.75 nM (active). For the same molecule, the GI50 (MDA-MB-435) was 5.5 nM (active), the GI50 (HOP-62) was 0.891 nM (active) and the GI50 (PC-3) was 5.13 nM (active). For the same molecule, the GI50 (MDA-MB-231) was 22.1 nM (active), the GI50 (CAKI-1) was 0.301 nM (active) and the GI50 (SF-539) was 110 nM (active). The GI50 (HCT-15) was 3.82 nM, the GI50 (786-0) was 1.21 nM (active) and the GI50 (CCRF-CEM) was 1.94 nM (active). The GI50 (A498) was 1.84 nM (active), the GI50 (HCT-116) was 2.54 nM (active) and the GI50 (SNB-19) was 12.4 nM (active). For the same molecule, the GI50 (COLO 205) was 5.6 nM (active), the GI50 (MOLT-4) was 0.46 nM (active) and the GI50 (Hs-578T) was 16.9 nM (active). The GI50 (SK-MEL-28) was 12.3 nM (active), the GI50 (DU-145) was 0.679 nM (active) and the GI50 (HOP-92) was 35.7 nM (active). The GI50 (UACC-62) was 3.04 nM (active), the GI50 (OVCAR-8) was 0.408 nM (active) and the GI50 (RPMI-8226) was 228 nM (active). For the same molecule, the GI50 (SF-268) was 1.95 nM (active), the GI50 (TK-10) was 4.29 nM (active) and the GI50 (LOX IMVI) was 2.62 nM (active). For the same molecule, the GI50 (SR) was 470 nM (active), the GI50 (OVCAR-4) was 2.09 nM (active) and the GI50 (OVCAR-3) was 8.85 nM (active). The GI50 (SF-295) was 110 nM (active), the GI50 (HCC 2998) was 3.07 nM (active) and the GI50 (HL-60) was 0.264 nM (active). The GI50 (A549) was 0.891 nM (active), the GI50 (NCI-H23) was 0.551 nM (active) and the GI50 (SW-620) was 4.56 nM (active). For the same molecule, the GI50 (NCI-H460) was 0.308 nM (active), the GI50 (HT-29) was 1.44 nM (active) and the GI50 (OVCAR-5) was 7.53 nM (active). For the same molecule, the GI50 (SN12C) was 3.45 nM (active), the GI50 (NCI/ADR-RES) was 1.36 nM (active) and the GI50 (SNB-75) was 2.94 nM (active). For the same molecule, the GI50 (EKVX) was 110 nM (active), the GI50 (MDA-N) was 8.17 nM (active) and the GI50 (NCI-H226) was 110 nM (active). The GI50 (UACC-257) was 6.27 nM (active), the GI50 (UO-31) was 1.28 nM (active) and the GI50 (SK-MEL-5) was 0.787 nM (active). For the same molecule, the GI50 (KM12) was 2.96 nM (active), the GI50 (U-251) was 2.81 nM (active) and the GI50 (M14) was 4.55 nM (active). For the same molecule, the GI50 (BT-549) was 1.26 nM (active).
